The text below walks through data of patent publication US20060100226A1, “2-Thiopyrimidinones as therapeutic agents” (priority 2004, published 2006).

What is called IC50 is the concentration that inhibits the measured activity by half.

Structures are written as SMILES.

In this assay the target is T1, murine MEKK2 (mMEKK2) (Mus musculus, UniProt Q61083).
T1 sequence (Q61083 1-619): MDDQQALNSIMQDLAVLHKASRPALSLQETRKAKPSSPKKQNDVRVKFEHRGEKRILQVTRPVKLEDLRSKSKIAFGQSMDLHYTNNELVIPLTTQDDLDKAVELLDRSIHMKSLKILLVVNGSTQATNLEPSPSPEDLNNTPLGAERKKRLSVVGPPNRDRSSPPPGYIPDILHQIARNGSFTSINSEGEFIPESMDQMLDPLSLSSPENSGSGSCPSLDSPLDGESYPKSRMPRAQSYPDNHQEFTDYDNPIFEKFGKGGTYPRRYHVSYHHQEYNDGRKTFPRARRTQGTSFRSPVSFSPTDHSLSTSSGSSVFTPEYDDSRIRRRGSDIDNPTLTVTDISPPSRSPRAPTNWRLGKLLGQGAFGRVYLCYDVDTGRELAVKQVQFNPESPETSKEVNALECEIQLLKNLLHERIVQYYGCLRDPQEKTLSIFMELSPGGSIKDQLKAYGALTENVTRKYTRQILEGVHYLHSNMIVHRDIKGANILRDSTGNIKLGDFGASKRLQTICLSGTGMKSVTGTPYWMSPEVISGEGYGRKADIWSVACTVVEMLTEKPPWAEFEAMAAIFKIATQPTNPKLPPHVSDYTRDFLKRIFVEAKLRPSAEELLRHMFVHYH
Kind of assay: TR-FRET kinase assay (mMEKK2/MBP). It is filed as biochemical. Conditions: substrate biotin MBP, 60 minutes at room temperature. Here is the method:
In one approach, MEKK2 inhibitory activity of compounds of the invention can be assessed using the time-resolved Fluorescence Resonance Energy Transfer (TR-FRET) assay detailed in Example 5. In this assay, the excitation energy of one fluorescent molecule (the donor) is transferred by a resonance mechanism to a nearby second fluorescent molecule (the acceptor), which then releases its fluorescent energy through fluorescent emission. This fluorescent energy is measured using a time-resolved fluorescence measurement protocol (LANCE high count 615/665); excitation occurred with 1,000 flashes at 325 nm, measurement was delayed by 100 μs, and data were acquired for 50 μs at 615 and 665 nm.
A TR-FRET kinase assay was used to screen potential inhibitors of MEKK2. The assay was performed as follows: Compounds to be tested were weighed and solubilized in DMSO (Sigma) to a stock concentration of 10 mM. Serial dilutions starting from 1 mM were prepared with additional DMSO. These dilutions were further diluted to 250 μM in kinase reaction buffer [20 mM Hepes pH 7.5, 5 mM MgCl2, 1 mM DTT (Dithiothreitol-Sigma), 1 mM NaVO4 (sodium vanadate-Sigma). A 25 μl aliquot of this solution was transferred to a black 96-well nonbinding surface microplate (Fisher). A stock aliquot containing […] of murine MEKK2 (mMEKK2) was diluted in the kinase reaction buffer and incubated with the compounds on the microplate for 10 minutes. A 25 μl aliquot of a 138 ng solution of biotin MBP (myelin basic protein—Upstate Biotechnology) was added to the reaction followed by 25 ul of a 25 ng solution of anti-phospho MBP antibody (Upstate Biotechnology) diluted in kinase reaction buffer. Finally an aliquot (50 μl) of a 5 uM solution of ATP (adenosine triphosphate) was added and the reaction was allowed to proceed for 60 minutes at room temperature. The reaction was stopped by the addition of 50 μL of a 12.5 ng solution of europium labeled anti-mouse IgG (Perkin Elmer) and 45 ng of Cy5 labeled streptavidin (Jackson Immunoresearch) in termination buffer (20 mM Hepes pH 7.5, 100 mM EDTA; Sigma). The assay was allowed to equilibrate for 45 minutes before placing the plate on the Victor™ plate reader. The plate was read using the 615/665 LANCE protocol.
A general note: Time-resolved FRET reads energy transfer from a long-lived donor to a nearby acceptor.
The compound `COc1cccc(-c2nc(SCc3cc(NCc4ccc(Cl)c(Cl)c4)cc([N+](=O)[O-])c3)[nH]c(=O)c2C#N)c1` [Example 4g] displayed an IC50 of less than 5 µM.

Compound `COc1cccc(-c2nc(SCc3cccc(NCC4CCN(c5ccncc5)CC4)c3)[nH]c(=O)c2C#N)c1` [Example 4c] came in with an IC50 of more than 40 µM.

In the case of `COc1cccc(-c2nc(SCc3cccc(NC(=O)c4cccc(C(F)(F)F)c4)c3)[nH]c(=O)c2C#N)c1` [Example 2g], the IC50 was less than 5 µM.

Consider `N#Cc1c(-c2cccc(O)c2)nc(SCc2cccc(NCC3CCN(c4ccncc4)CC3)c2)[nH]c1=O` [Example 4k], for which the IC50 is more than 40 µM.

As for `COc1cccc(-c2nc(SCc3ccc(NC(=O)c4cc(C(F)(F)F)cc(Cl)c4F)cc3)[nH]c(=O)c2C#N)c1` [Example 2eee], the IC50 was less than 5 µM.

The compound `COc1cccc(-c2nc(SCc3cccc(NCc4ccc(-c5cc(C(F)(F)F)n(C)n5)s4)c3)[nH]c(=O)c2C#N)c1` [Example 1q] displayed an IC50 of less than 1 µM.

Regarding `COc1cccc(-c2nc(SCc3cccc(NCC4CCOCC4)c3)[nH]c(=O)c2C#N)c1` [Example 1o], the IC50 is more than 40 µM.

`COc1cccc(CC(=O)Nc2cccc(CSc3nc(-c4cccc(OC)c4)c(C#N)c(=O)[nH]3)c2)c1` [Example 2f] gave an IC50 of less than 10 µM.

On to `COc1cccc(-c2nc(SCc3cccc(NC[C@H]4CCCN4C(=O)OC(C)(C)C)c3)[nH]c(=O)c2C#N)c1` [Example 1j], for which the IC50 is less than 20 µM.

Turning to `COc1cccc(-c2nc(SCc3ccc(NC(=O)C4CCN(c5nccc(C(F)(F)F)n5)CC4)cc3)[nH]c(=O)c2C#N)c1` [Example 2xx], the IC50 was more than 40 µM.

In the case of `COc1cccc(-c2nc(SCc3ccc(NC(=O)NC4CCCCC4)cc3)[nH]c(=O)c2C#N)c1` [Example 3y], the IC50 is less than 1 µM.

`COc1cccc(-c2nc(SCc3cccc(NC(=O)c4cc(C)nn4C(C)(C)C)c3)[nH]c(=O)c2C#N)c1` [Example 2w] registered an IC50 of less than 40 µM.

Consider `COc1cccc(-c2nc(SCc3cccc(NC(=O)COc4ccc(Cl)cc4)c3)[nH]c(=O)c2C#N)c1` [Example 2j], for which the IC50 was less than 5 µM.

On to `COc1cccc(-c2nc(SCc3cccc(NC(=O)c4cccc(Cl)c4)c3)[nH]c(=O)c2C#N)c1` [Example 2a, 3-Chloro-N-{3-[5-cyano-4-(3-methoxy-phenyl)-6-oxo-1,6-dihydro-pyrimidin-2-ylsulfanylmethyl]-phenyl}-benzamide], for which the IC50 is less than 5 µM.

In the case of `COc1cccc(-c2nc(SCc3cccc(NC(=O)Nc4cc(F)cc(F)c4)c3)[nH]c(=O)c2C#N)c1` [Example 3b, 1-{3-[5-Cyano-4-(3-methoxy-phenyl)-6-oxo-1,6-dihydro-pyrimidin-2-ylsulfanylmethyl]-phenyl}-3-(3,5-difluoro-phenyl)-urea], the IC50 is less than 5 µM.

For `N#Cc1c(-c2cccc(O)c2)nc(SCc2cccc(NC(=O)c3ccc(Cl)c(Cl)c3)c2)[nH]c1=O` [Example 4l], the IC50 was less than 5 µM.

With `COc1cccc(-c2nc(SCc3cccc(NCc4ccc(OC)nc4)c3)[nH]c(=O)c2C#N)c1` [Example 1n], the IC50 was less than 40 µM.

Turning to `COc1cccc(-c2nc(SCc3ccc(NC(=O)NC4CCNCC4)cc3)[nH]c(=O)c2C#N)c1` [Example 3bb], the IC50 is more than 40 µM.

In turn, `CCCc1c(C(=O)Nc2ccc(CSc3nc(-c4cccc(OC)c4)c(C#N)c(=O)[nH]3)cc2)cnn1-c1ccc(Cl)cc1` [Example 2bbb] yielded an IC50 of less than 1 µM.

Compound `COc1cccc(-c2nc(SCc3cccc(NC(=O)c4cc(Cl)nc(OC)c4)c3)[nH]c(=O)c2C#N)c1` [Example 2x] registered an IC50 of less than 10 µM.

As to `COc1cccc(-c2nc(SCc3ccccc3NC(=O)Cc3ccccc3)[nH]c(=O)c2C#N)c1` [Example 2mmm], the IC50 was less than 40 µM.

`COc1cccc(-c2nc(SCc3cccc(NC(=O)NCc4cc(OC)c(OC)c(OC)c4)c3)[nH]c(=O)c2C#N)c1` [Example 3i] showed an IC50 of less than 40 µM.

Compound `COc1cccc(-c2nc(SCc3cccc(NC(=O)c4ccc(OC)cc4OC)c3)[nH]c(=O)c2C#N)c1` [Example 2u] returned an IC50 of less than 20 µM.

`COc1cccc(-c2nc(SCc3ccc(NC(=O)Cc4ccccc4)cc3)[nH]c(=O)c2C#N)c1` [Example 2vv] yielded an IC50 of less than 20 µM.

Compound `COc1cccc(-c2nc(SCc3cccc(NCc4ccc(C#N)cc4)c3)[nH]c(=O)c2C#N)c1` [Example 1u] yielded an IC50 of less than 10 µM.

`COc1cccc(-c2nc(SCc3cccc(NCc4nc5ccccc5n4C)c3)[nH]c(=O)c2C#N)c1` [Example 1g] displayed an IC50 of less than 40 µM.

With `COc1cccc(-c2nc(SCc3cccc(NC(=O)Nc4ccccc4)c3)[nH]c(=O)c2C#N)c1` [Example 3d], the IC50 was less than 5 µM.

`COc1cccc(-c2nc(SCCCn3cnc4c(NCc5ccccc5)ncnc43)[nH]c(=O)c2C#N)c1` [Example 4i] returned an IC50 of more than 40 µM.

In turn, `COc1cccc(-c2nc(SCc3ccc(NC(=O)c4ccc(F)c(C(F)(F)F)c4)cc3)[nH]c(=O)c2C#N)c1` [Example 2rr] registered an IC50 of less than 5 µM.

In the case of `COc1cccc(-c2nc(SCc3cccc(NCc4cc(C)c(C)o4)c3)[nH]c(=O)c2C#N)c1` [Example 1w], the IC50 was less than 5 µM.

Regarding `COc1cccc(-c2nc(SCc3ccc(NC(=O)Nc4cccc5nsnc45)cc3)[nH]c(=O)c2C#N)c1` [Example 3aa], the IC50 was less than 1 µM.

In turn, `COc1cccc(-c2nc(SCc3ccc(NC(=O)NCc4ccccc4)cc3)[nH]c(=O)c2C#N)c1` [Example 3l] had an IC50 of less than 10 µM.

Consider `COc1cccc(-c2nc(SCc3cccc(NC(=O)c4ccc(C)cc4)c3)[nH]c(=O)c2C#N)c1` [Example 2b], for which the IC50 is less than 5 µM.

With `COc1cccc(-c2nc(SCc3cccc(NC(=O)Nc4ccc5c(c4)OCCO5)c3)[nH]c(=O)c2C#N)c1` [Example 3j], the IC50 is less than 10 µM.

As for `COc1cccc(-c2nc(SCc3ccc(NC(=O)Nc4c(Cl)cccc4Cl)cc3)[nH]c(=O)c2C#N)c1` [Example 3q], the IC50 is more than 40 µM.

Take `COc1cccc(-c2nc(SCc3ccccc3NC(=O)c3cccc(C(F)(F)F)c3)[nH]c(=O)c2C#N)c1` [Example 2ooo]: the IC50 is more than 40 µM.

Compound `COc1cccc(-c2nc(SCc3ccc(NC(=O)Nc4cccc(Oc5ccccc5)c4)cc3)[nH]c(=O)c2C#N)c1` [Example 3v] had an IC50 of less than 1 µM.

The compound `COc1cccc(-c2nc(SCc3cccc(NCc4ccc(N5CCCCC5)cc4)c3)[nH]c(=O)c2C#N)c1` [Example 1i] registered an IC50 of less than 10 µM.

The compound `COc1cccc(-c2nc(SCc3ccc(NC(=O)Nc4cc([N+](=O)[O-])ccc4F)cc3)[nH]c(=O)c2C#N)c1` [Example 3u] had an IC50 of less than 10 µM.

Compound `COc1cccc(-c2nc(SCc3ccc(NC(=O)Nc4cc(C(F)(F)F)ccc4Cl)cc3)[nH]c(=O)c2C#N)c1` [Example 3t] had an IC50 of less than 5 µM.

`COc1cccc(-c2nc(SCc3ccc(NC(=O)c4ccc(Cl)nc4)cc3)[nH]c(=O)c2C#N)c1` [Example 2yy]: the IC50 was less than 20 µM.

The compound `COc1cccc(-c2nc(SCc3cccc(NC(=O)Cc4ccc(Cl)cc4)c3)[nH]c(=O)c2C#N)c1` [Example 2l] had an IC50 of less than 5 µM.

`COc1cccc(-c2nc(SCc3cccc(NC(=O)c4ccc5c(c4)OCO5)c3)[nH]c(=O)c2C#N)c1` [Example 2o] gave an IC50 of less than 5 µM.

Compound `COc1cccc(-c2nc(SCc3cccc(NC(=O)c4sccc4C)c3)[nH]c(=O)c2C#N)c1` [Example 2s] yielded an IC50 of less than 10 µM.

In turn, `COc1cccc(-c2nc(SCc3cccc(NCc4c(C(F)(F)F)nn(C)c4Cl)c3)[nH]c(=O)c2C#N)c1` [Example 1s] showed an IC50 of less than 10 µM.
